{
  "source": "patent US20220096515A1",
  "about": "“Methods and Formulations for Preventing Neurological or Psychiatric Disorders” (Huntington Medical Research Institutes, priority 2020, published 2022)",
  "key": {"P2Y13 receptor": {"target": "T1, P2Y13 receptor (Mus musculus, UniProt Q9D8I2)", "T1 construct": "imaged continuously before and after αβ-meATP, Bz-ATP and 2Me-SADP application (100 μM); endogenous in cells; host or cells: Primary periventricular endothelial cells from mouse embryonic telencephalon", "T1 sequence (Q9D8I2 1-337)": "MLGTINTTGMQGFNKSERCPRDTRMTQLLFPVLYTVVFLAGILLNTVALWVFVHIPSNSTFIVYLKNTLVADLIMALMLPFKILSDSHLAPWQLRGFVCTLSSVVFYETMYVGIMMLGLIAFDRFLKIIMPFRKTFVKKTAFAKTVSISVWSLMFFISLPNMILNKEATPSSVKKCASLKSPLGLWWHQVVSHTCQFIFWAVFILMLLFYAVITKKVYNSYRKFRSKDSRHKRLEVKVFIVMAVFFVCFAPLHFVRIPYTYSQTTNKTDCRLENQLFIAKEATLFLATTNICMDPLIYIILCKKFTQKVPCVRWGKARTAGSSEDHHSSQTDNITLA", "assay": "Calcium imaging, P2Y13 agonist", "format": "cell-based", "details": "100 μM; periventricular endothelial cells", "protocol": "(§1) Calcium imaging: For Ca^2+ assays, periventricular endothelial cells (1 million cells per assay) were incubated with the Ca^2+ indicator dye FluoForte AM according to manufacturer's instructions (Enzo Life Sciences), loaded into the chamber of an FSX 100 microscope and imaged continuously before and after αβ-meATP, Bz-ATP and 2Me-SADP application (100 μM). Fluorescence micrographs were digitalized and results were expressed as change in fluorescence over baseline fluorescence.\n(§2) An important aspect that influences endothelial cell proliferation is Ca^2+ influx, which is important for cell cycle progression in the neocortex. GABAA receptor activation in Gabrb3^fl/fl periventricular endothelial cells leads to an influx of Ca^2+ that influences cell proliferation. However, in Gabrb3^ECKO periventricular endothelial cells, due to the deletion of the β3 subunit, the GABAA receptors are dysfunctional. So, the autocrine feedback loop of GABA acting on GABAA receptors will not work in these Gabrb3^ECKO endothelial cells to cause Ca^2+ influx, even if GABA secretion is restored. […] Therefore, P2X4 expression at both mRNA and protein levels in periventricular endothelial cells were evaluated, prepared after the six-day saline and NAD^+ treatment paradigm (FIGS. 11J-11O). […]"}, "P2X4 receptor [1]": {"target": "T2, P2X4 receptor (Mus musculus, UniProt Q9JJX6)", "T2 construct": "endogenous in cells; host or cells: Primary periventricular endothelial cells from mouse embryonic telencephalon (CD1 wild type; Gabrb3 fl/fl; Gabrb3 ECKO with or without NAD+)", "T2 sequence (Q9JJX6 1-388)": "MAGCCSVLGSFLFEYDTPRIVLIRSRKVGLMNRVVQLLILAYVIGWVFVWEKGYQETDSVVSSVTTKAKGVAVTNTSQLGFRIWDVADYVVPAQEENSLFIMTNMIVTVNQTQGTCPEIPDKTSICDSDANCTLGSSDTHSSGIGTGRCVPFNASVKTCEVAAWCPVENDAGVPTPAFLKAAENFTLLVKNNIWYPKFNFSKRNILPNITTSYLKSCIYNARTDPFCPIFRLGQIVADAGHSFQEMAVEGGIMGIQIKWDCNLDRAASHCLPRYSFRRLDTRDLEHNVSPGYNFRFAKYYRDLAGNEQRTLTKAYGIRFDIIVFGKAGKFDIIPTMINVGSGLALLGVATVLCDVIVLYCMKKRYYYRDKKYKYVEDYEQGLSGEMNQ", "assay": "P2X4 activation/inactivation in wild type endothelial cells: Daxx mRNA and GABA ELISA", "format": "cell-based", "details": "cultured wild type periventricular endothelial cells", "protocol": "Quantitative real-time PCR: RT was performed by using iScript Reverse Transcription Supermix kit (Bio-Rad). PCR reactions were run on a CFX96 Touch Real Time PCR (Bio-Rad) with SsoAdvanced™ Universal SYBR® Green Supermix (Bio-Rad). Primers for qPCR (Daxx, P2x4, P2x7, P2y13, Tek, vwf, F2r, Sirt2, Nos1, Nrp1, Pax6, Gad1, Gad2, Grin2a, Trpm2, Trpc4 and Trpv6) were obtained from Thermo Fisher Scientific. The housekeeping gene Gapdh was used as a reference. The relative gene expression and subsequent fold changes among different samples were determined according to published methodology.\nELISA: Periventricular endothelial cells were prepared after the NAD^+ treatment paradigm, or after the treatment with purinergic receptor agonists/antagonists, and seeded in 12 well culture plates at 0.1×10^6 cells/well. Supernatants from endothelial cell cultures were collected after 96 hours and stored at −80° C. for ELISA. GABA concentrations were quantitatively determined by competitive ELISA according to the manufacturers' protocol (GABA Research ELISA kits, Labor Diagnostica Nord, Germany), and absorbance was measured using a multiplate microplate fluorescence reader (Molecular Devices, CA) at 450 nm.\n(§3) An important aspect that influences endothelial cell proliferation is Ca^2+ influx, which is important for cell cycle progression in the neocortex. GABAA receptor activation in Gabrb3^fl/fl periventricular endothelial cells leads to an influx of Ca^2+ that influences cell proliferation. However, in Gabrb3^ECKO periventricular endothelial cells, due to the deletion of the β3 subunit, the GABAA receptors are dysfunctional. So, the autocrine feedback loop of GABA acting on GABAA receptors will not work in these Gabrb3^ECKO endothelial cells to cause Ca^2+ influx, even if GABA secretion is restored. In the absence of this mechanism, it was questioned whether the prenatal NAD^+ treatment was able to activate alternate mechanisms to trigger Ca^2+ influx in Gabrb3^ECKO endothelial cells. […] Therefore, P2X4 expression at both mRNA and protein levels in periventricular endothelial cells were evaluated, prepared after the six-day saline and NAD^+ treatment paradigm (FIGS. 11J-11O). P2X4 has been reported as the most abundantly expressed P2X receptor subtype in vascular endothelial cells from several tissues and its deficiency affects normal endothelial cell responses, such as Ca^2+ influx. However, P2X4 expression and functional significance in embryonic forebrain endothelial cells is unknown. […] To test whether P2X4 receptor activation on endothelial cells leads to an influx of Ca^2+, periventricular endothelial cells were incubated from the three groups in the presence of αβ-meATP that has been reported to show agonist activity at P2X receptors, including P2X4 (FIGS. 11N-11Q). […]"}, "[2]": {"system": "periventricular endothelial cells isolated from E15 wildtype (CD1) forebrain", "assay": "Endothelial cell proliferation in culture (confluency, BrdU labeling index)", "format": "cell-based, mouse", "details": "30 μM and 100 μM", "protocol": "Primary culture of endothelial cells and endothelial cell staining: Embryonic brains were dissected under a stereo-microscope, after the NAD^+ treatment paradigm and the telencephalon was removed. Pial membranes were peeled off. Telencephalon without pial membranes from the periventricular region was pooled. Purity of endothelial cell cultures was established with endothelial cell markers and determined to be one hundred percent. Isolation and culture of endothelial cells were performed according to published methodology. Periventricular endothelial cells were prepared from CD1 (wild type), saline-treated Gabrb3^fl/fl, saline-treated Gabrb3^ECKO, and NAD^+-treated Gabrb3^ECKO embryos. Endothelial cells were labeled with anti-biotinylated isolectinB4 (1:100, Sigma), anti-GABA (1:400, Sigma), anti-DAXX (1:100, Santa Cruz Biotechnology) and anti-P2X4 (1:100, Abclonal) followed by secondary detection with AlexaFluor conjugates (Invitrogen). DAPI (Invitrogen) was used to label nuclei. Images were taken on an FSX100 microscope (Olympus). 1 million cells were examined for each immunohistochemistry condition.\nEndothelial cell proliferation and long-distance cell migration assay: To test for cell proliferation, CD1 periventricular endothelial cells (1 million cells per experiment) were incubated in the presence of the mitotic marker 5-bromo-2′-deoxyuridine (0.05% BrdU) with or without muscimol, for 1 hour to examine the impact on proliferation of these cells and processed for BrdU immunohistochemistry.\nIn one experiment, periventricular endothelial cells were isolated from E15 wildtype (CD1) forebrain and tested the effect of NAD^+ addition in vitro. Exogenous addition of 100 μM NAD^+ was able to initiate significant endothelial cell proliferation within 2 days of culture and a 35 mm culture dish was confluent within 4-6 days (FIGS. 2A-2D). This was an interesting observation, since untreated periventricular endothelial cells take approximately 12 days to reach confluency in 35mm dishes, in our well-established culture conditions. […] Vital elements of angiogenesis include effective endothelial cell proliferation, migration, sprouting, alignment, tube formation and branching. […] In some areas of the dish, the NAD^+-treated endothelial cells seemed to align and fold into tubular shapes (FIG. 2H), aspects that we have not seen in wild type or untreated periventricular endothelial cells in normal culture conditions.\nEffects of NAD^+ addition to periventricular endothelial cells isolated from E15 wildtype (CD1) forebrain was more robust than GABA. (FIGS. 17A-17F) Phase contrast images of periventricular endothelial cells cultured from E15 CD1 forebrain at different time points in untreated conditions (FIGS. 17A-17B) or after plating with NAD^+ addition (100 μM; FIGS. 17C-17D) or GABA addition (5 μM; FIGS. 17E-17F). […] (FIG. 17G) All groups of periventricular endothelial cells were exposed to BrdU (1 mM BrdU per ml medium) for 1 hour followed by Isolectin B4/BrdU double labeling. Quantification of BrdU labeling indices; Data represents mean±SD (n=8, *P<0.05; Student's t-test)."}, "P2X4 receptor [3]": {"target": "T2, P2X4 receptor", "assay": "Calcium imaging, P2X receptor agonist", "format": "cell-based", "details": "100 μM", "protocol": "as §1, §3"}, "P2X7 receptor": {"target": "T3, P2X7 receptor (Mus musculus, UniProt Q9Z1M0)", "T3 construct": "imaged continuously before and after αβ-meATP, Bz-ATP and 2Me-SADP application (100 μM); endogenous in cells; host or cells: Primary periventricular endothelial cells from mouse embryonic telencephalon", "T3 sequence (Q9Z1M0 1-595)": "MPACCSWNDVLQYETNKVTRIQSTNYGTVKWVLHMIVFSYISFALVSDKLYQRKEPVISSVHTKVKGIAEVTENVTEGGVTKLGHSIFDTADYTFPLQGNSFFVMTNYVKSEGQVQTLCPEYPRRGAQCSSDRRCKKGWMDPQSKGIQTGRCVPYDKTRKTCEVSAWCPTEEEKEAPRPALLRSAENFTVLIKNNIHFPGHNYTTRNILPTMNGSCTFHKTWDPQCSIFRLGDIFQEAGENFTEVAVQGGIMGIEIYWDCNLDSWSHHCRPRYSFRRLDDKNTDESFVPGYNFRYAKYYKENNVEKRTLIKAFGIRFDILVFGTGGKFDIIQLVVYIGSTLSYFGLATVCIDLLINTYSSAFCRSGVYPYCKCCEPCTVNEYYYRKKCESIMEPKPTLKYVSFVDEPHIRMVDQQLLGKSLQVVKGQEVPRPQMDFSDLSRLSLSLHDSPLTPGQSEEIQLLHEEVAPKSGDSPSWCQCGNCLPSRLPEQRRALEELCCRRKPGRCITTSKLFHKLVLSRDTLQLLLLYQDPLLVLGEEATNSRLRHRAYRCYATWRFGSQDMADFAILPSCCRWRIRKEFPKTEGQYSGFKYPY", "assay": "Calcium imaging, P2X7 agonist", "format": "cell-based", "details": "100 μM; periventricular endothelial cells", "protocol": "as §1, §2"}},
  "data": [
    {"compound": "CSc1nc(N)c2ncn([C@@H]3O[C@H](COP(=O)(O)OP(=O)(O)O)[C@@H](O)[C@H]3O)c2n1", "note": "[2Me-SADP]", "values": [
      {"measurement": "influx of Ca^2+", "setting": "P2Y13 receptor", "result": "produced an influx of Ca^2+"}
    ]},
    {"compound": "O=C1CC(=O)N(c2cccc(-c3nc(=S)o[nH]3)c2)c2ccc3ccccc3c2N1", "note": "[+NP-1815-PX, NP-1815-PX]", "values": [
      {"measurement": "Daxx mRNA expression", "setting": "P2X4 receptor [1]", "result": "increased Daxx expression"},
      {"measurement": "GABA secretion by ELISA", "setting": "P2X4 receptor [1]", "result": "reduced GABA secretion"}
    ]},
    {"compound": "NCCCC(=O)O", "note": "[GABA, reference compound]", "values": [
      {"measurement": "endothelial cell proliferation", "setting": "[2]", "result": "no notable effect on cell proliferation"}
    ]},
    {"compound": "Nc1ncnc2c1ncn2[C@@H]1O[C@H](COP(=O)(O)CP(=O)(O)OP(=O)(O)O)[C@@H](O)[C@H]1O", "note": "[αβ-meATP]", "values": [
      {"measurement": "Daxx mRNA expression", "setting": "P2X4 receptor [1]", "result": "reduced Daxx expression"},
      {"measurement": "GABA secretion by ELISA", "setting": "P2X4 receptor [1]", "result": "increased GABA secretion"},
      {"measurement": "intracellular calcium", "setting": "P2X4 receptor [3]; NAD^+-treated Gabrb3^ECKO endothelial cells", "result": "significant increase in intracellular calcium"},
      {"measurement": "intracellular calcium", "setting": "P2X4 receptor [3]; saline-treated Gabrb3^ECKO endothelial cells", "result": "no marked increase in intracellular calcium"},
      {"measurement": "intracellular calcium", "setting": "P2X4 receptor [3]; saline-treated Gabrb3^fl/fl endothelial cells", "result": "significant increase in intracellular calcium"}
    ]},
    {"compound": "Bz-ATP", "values": [
      {"measurement": "influx of Ca^2+", "setting": "P2X7 receptor", "result": "produced an influx of Ca^2+"}
    ]}
  ]
}
